Experimental data taken from patent US9062071B2, “Substituted piperidines as HDM2 inhibitors” (Merck Sharp & Dohme Corp, priority 2011, dated 2015).

target: HDM2 protein (Homo sapiens, UniProt Q00987); experiment: fluorescence polarization screening assay (FP IC50); type: binding; conditions: class symbols
Protocol: The compounds were evaluated to determine activity at the HDM2 protein by known methods such as the fluorescence polarization screening assay that measures the inhibitory concentration that achieves 50% of maximal activity (FP IC50) and the dissociation constant for inhibitor binding (FP Ki). [Zhang et al., J. Analytical Biochemistry 331: 138-146 (2004)].

Sequence of HDM2 protein (Q00987 whole entry): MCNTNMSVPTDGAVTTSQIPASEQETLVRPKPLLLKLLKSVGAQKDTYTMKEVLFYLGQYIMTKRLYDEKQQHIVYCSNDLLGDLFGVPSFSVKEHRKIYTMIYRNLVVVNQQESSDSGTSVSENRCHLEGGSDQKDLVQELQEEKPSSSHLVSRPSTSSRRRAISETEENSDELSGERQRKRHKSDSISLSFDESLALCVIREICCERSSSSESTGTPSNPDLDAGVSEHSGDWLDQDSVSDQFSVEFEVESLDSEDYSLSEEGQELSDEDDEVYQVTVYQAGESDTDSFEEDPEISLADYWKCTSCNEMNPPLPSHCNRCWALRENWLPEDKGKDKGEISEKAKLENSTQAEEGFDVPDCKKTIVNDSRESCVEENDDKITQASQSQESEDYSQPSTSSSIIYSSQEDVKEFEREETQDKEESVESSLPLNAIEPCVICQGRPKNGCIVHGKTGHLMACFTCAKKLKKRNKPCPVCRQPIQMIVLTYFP

`CCC[C@H]1N(C(=O)c2ncccc2C(F)(F)F)CCC[C@@]1(Oc1csc(C(F)(F)F)c1)C(=O)N1CCc2cc(F)ccc2C1CCC(=O)O` (stereo partly drawn) [Compound A39, 3-(6-fluoro-2-{[(2R,3S)-2-propyl-1-{[3-(trifluoromethyl)pyridin-2-yl]carbonyl}-3-{[5-(trifluoromethyl)thiophen-3-yl]oxy}piperidin-3-yl]carbonyl}-1,2,3,4-tetrahydroisoquinolin-1-yl)propanoic acid] and `CCC[C@H]1N(C(=O)c2ncccc2C(F)(F)F)CCC[C@@]1(Oc1csc(C(F)(F)F)c1)C(=O)N1CCc2cc(Cl)ccc2[C@H]1CCC(=O)O` [Compound A45, 3-[(1R)-6-chloro-2-{[(2R,3S)-2-propyl-1-{[3-(trifluoromethyl)pyridin-2-yl]carbonyl}-3-{[5-(trifluoromethyl)thiophen-3-yl]oxy}piperidin-3-yl]carbonyl}-1,2,3,4-tetrahydroisoquinolin-1-yl]propanoic acid] fall in the same range of IC50: 1 to 100 nM for the first, 1 to 100 nM for the second.

`CCC[C@H]1N(C(=O)c2ncccc2C(F)(F)F)CCC[C@@]1(Oc1csc(C(F)(F)F)c1)C(=O)N1CCc2cc(Cl)ccc2C1CN1CCOCC1` (stereo partly drawn) [Compound A12, 6-chloro-1-(morpholin-4-ylmethyl)-2-{[(2R,3S)-2-propyl-1-{[3-(trifluoromethyl)pyridin-2-yl]carbonyl}-3-{[5-(trifluoromethyl)thiophen-3-yl]oxy}piperidin-3-yl]carbonyl}-1,2,3,4-tetrahydroisoquinoline] and `CCC[C@H]1N(C(=O)c2ncccc2C(F)(F)F)CCC[C@@]1(Oc1csc(C(F)(F)F)c1)C(=O)N1CCc2cc(Cl)ccc2C1CC(=O)O` (stereo partly drawn) [Compound A53, (6-chloro-2-{[(2R,3S)-2-propyl-1-{[3-(trifluoromethyl)pyridin-2-yl]carbonyl}-3-{[5-(trifluoromethyl)thiophen-3-yl]oxy}piperidin-3-yl]carbonyl}-1,2,3,4-. tetrahydroisoquinolin-1-yl)acetic acid] fall in the same range of IC50: 1 to 100 nM for the first, 1 to 100 nM for the second.

`CCC[C@H]1N(C(=O)c2ncccc2C(F)(F)F)CCC[C@@]1(Oc1csc(C(F)(F)F)c1)C(=O)N1Cc2cc(F)ccc2CC1C(=O)O` (stereo in doubt) [Compound A126, (3S)-7-fluoro-2-{[(2R,3S)-2-propyl-1-{[3-(trifluoromethyl)pyridin-2-yl]carbonyl}-3-{[5-(trifluoromethyl)thiophen-3-yl]oxy}piperidin-3-yl]carbonyl}-1,2,3,4-tetrahydroisoquinoline-3-carboxylic acid] and `CCC[C@H]1N(C(=O)c2ncccc2C(F)(F)F)CCC[C@@]1(Oc1csc(C(F)(F)F)c1)C(=O)N1Cc2ccc(Cl)cc2C[C@@H]1C(=O)O` [Compound A129, (3R)-6-chloro-2-{[(2R,3S)-2-propyl-1-{[3-(trifluoromethyl)pyridin-2-yl]carbonyl}-3-{[5-(trifluoromethyl)thiophen-3-yl]oxy}piperidin-3-yl]carbonyl}-1,2,3,4-tetrahydroisoquinoline-3-carboxylic acid] fall in the same range of IC50: 1 to 100 nM for the first, 1 to 100 nM for the second.

`CCC[C@H]1N(C(=O)c2ncccc2C(F)(F)F)CCC[C@@]1(Oc1csc(C(F)(F)F)c1)C(=O)N1CCc2cc(Cl)ccc2C1C(N)=O` (stereo partly drawn) [Compound A77, 6-chloro-2-{[(2R,3S)-2-propyl-1-{[3-(trifluoromethyl)pyridin-2-yl]carbonyl}-3-{[5-(trifluoromethyl)thiophen-3-yl]oxy}piperidin-3-yl]carbonyl}-1,2,3,4-tetrahydroisoquinoline-1-carboxamide] and `C=CC[C@H]1N(C(=O)c2ncccc2C(F)(F)F)CCC[C@@]1(Oc1csc(C(F)(F)F)c1)C(=O)N1CCc2cc(Cl)ccc2C1C(=O)O` (stereo partly drawn) [Compound A113, 6-chloro-2-{[(2R,3S)-2-prop-2-en-1-yl-1-{[3-(trifluoromethyl)pyridin-2-yl]carbonyl}-3-{[5-(trifluoromethyl)thiophen-3-yl]oxy}piperidin-3-yl]carbonyl}-1,2,3,4-tetrahydroisoquinoline-1-carboxylic acid] fall in the same range of IC50: 1 to 100 nM for the first, 1 to 100 nM for the second.

First: CCC[C@H]1N(C(=O)c2ncccc2C(F)(F)F)CCC[C@@]1(Oc1csc(C(F)(F)F)c1)C(=O)N1Cc2ccc(Cl)cc2C[C@@H]1CCCF [Compound A141, (3S)-6-chloro-3-(3-fluoropropyl)-2-{[(2R,3S)-2-propyl-1-{[3-(trifluoromethyl)pyridin-2-yl]carbonyl}-3-{[5-(trifluoromethyl)thiophen-3-yl]oxy}piperidin-3-yl]carbonyl}-1,2,3,4-tetrahydroisoquinoline]
Second: CCC[C@H]1N(C(=O)c2ncccc2C(F)(F)F)CCC[C@@]1(Oc1csc(C(F)(F)F)c1)C(=O)N1Cc2ccc(F)cc2C[C@H]1CCC(C)O (stereo partly drawn) [Compound A167, 4-[(3R)-6-fluoro-2-{[(2R,3S)-2-propyl-1-{[3-(trifluoromethyl)pyridin-2-yl]carbonyl}-3-{[5-(trifluoromethyl)thiophen-3-yl]oxy}piperidin-3-yl]carbonyl}-1,2,3,4-tetrahydroisoquinolin-3-yl]butan-2-ol]
The IC50 of the first is higher: 101 to 20000 nM for the first, 1 to 100 nM for the second. The second is the more potent here.

`CCC[C@H]1N(C(=O)c2ncccc2C(F)(F)F)CCC[C@@]1(Oc1csc(C(F)(F)F)c1)C(=O)N1CCc2ccc(C(N)=O)cc2C1` [Compound A6, 2-{[(2R,3S)-2-propyl-1-{[3-(trifluoromethyl)pyridin-2-yl]carbonyl}-3-{[5-(trifluoromethyl)thiophen-3-yl]oxy}piperidin-3-yl]carbonyl}-1,2,3,4-tetrahydroisoquinoline-7-carboxamide] and `CCC[C@H]1N(C(=O)c2ncccc2C(F)(F)F)CCC[C@@]1(Oc1csc(C(F)(F)F)c1)C(=O)N1CCc2cc(N)ccc2C1` [Compound A11, 2-{[(2R,3S)-2-propyl-1-{[3-(trifluoromethyl)pyridin-2-yl]carbonyl}-3-{[5-(trifluoromethyl)thiophen-3-yl]oxy}piperidin-3-yl]carbonyl}-1,2,3,4-tetrahydroisoquinolin-6-amine] fall in the same range of IC50: 101 to 20000 nM for the first, 101 to 20000 nM for the second.

`CCC[C@H]1N(C(=O)c2ncccc2C(F)(F)F)CCC[C@@]1(Oc1csc(C(F)(F)F)c1)C(=O)N1CCc2sc(Cl)cc2C1CC(C)(C)C(=O)O` (stereo partly drawn) [Compound A25, 3-(2-chloro-5-{[(2R,3S)-2-propyl-1-{[3-(trifluoromethyl)pyridin-2-yl]carbonyl}-3-{[5-(trifluoromethyl)thiophen-3-yl]oxy}piperidin-3-yl]carbonyl}-4,5,6,7-tetrahydrothieno[3,2-c]pyridin-4-yl)-2,2-dimethylpropanoic acid] and `CCC[C@H]1N(C(=O)c2ncccc2C(F)(F)F)CCC[C@@]1(Oc1csc(C(F)(F)F)c1)C(=O)N1CCc2sc(Cl)cc2C1CCC(=O)NS(C)(=O)=O` (stereo partly drawn) [Compound A37, 3-(2-chloro-5-{[(2R,3S)-2-propyl-1-{[3-(trifluoromethyl)pyridin-2-yl]carbonyl}-3-{[5-(trifluoromethyl)thiophen-3-yl]oxy}piperidin-3-yl]carbonyl}-4,5,6,7-tetrahydrothieno[3,2-c]pyridin-4-yl)-N-(methylsulfonyl) propanamide] fall in the same range of IC50: 1 to 100 nM for the first, 1 to 100 nM for the second.

First: CCC[C@H]1N(C(=O)c2ncccc2C(F)(F)F)CCC[C@@]1(Oc1csc(C(F)(F)F)c1)C(=O)N1Cc2cc(F)ccc2C[C@@H]1CCC(=O)O [Compound A132, 3-[(3S)-7-fluoro-2-{[(2R,3S)-2-propyl-1-{[3-(trifluoromethyl)pyridin-2-yl]carbonyl}-3-{[5-(trifluoromethyl)thiophen-3-yl]oxy}piperidin-3-yl]carbonyl}-1,2,3,4-tetrahydroisoquinolin-3-yl]propanoic acid]
Second: CCC[C@H]1N(C(=O)c2ncccc2C(F)(F)F)CCC[C@@]1(Oc1csc(C(F)(F)F)c1)C(=O)N1Cc2ccc(F)cc2C[C@H]1CN(C)C(=O)[C@@H](C)O [Compound A158, (2R)-N-{[(3S)-6-fluoro-2-{[(2R,3S)-2-propyl-1-{[3-(trifluoromethyl)pyridin-2-yl]carbonyl}-3-{[5-(trifluoromethyl)thiophen-3-yl]oxy}piperidin-3-yl]carbonyl}-1,2,3,4-tetrahydroisoquinolin-3-yl]methyl}-2-hydroxy-N-methylpropanamide]
The IC50 of the first is lower: 1 to 100 nM for the first, 101 to 20000 nM for the second. The first is the more potent here.

`CCC[C@H]1N(C(=O)c2ncccc2C(F)(F)F)CCC[C@@]1(Oc1csc(C(F)(F)F)c1)C(=O)N1CCc2cc(Cl)ccc2C1CC(C)(C)C(=O)NS(C)(=O)=O` (single isomer, unassigned) [Compound A69] and `CCC[C@H]1N(C(=O)c2ncccc2C(F)(F)F)CCC[C@@]1(Oc1csc(C(F)(F)F)c1)C(=O)N1CCc2cc(Cl)ccc2C1CC(C(=O)O)C(C)C` (stereo partly drawn) [Compound A178, 2-[(6-chloro-2-{[(2R,3S)-2-propyl-1-{[3-(trifluoromethyl)pyridin-2-yl]carbonyl}-3-{[5-(trifluoromethyl)thiophen-3-yl]oxy}piperidin-3-yl]carbonyl}-1,2,3,4-tetrahydroisoquinolin-1-yl)methyl]-3-methylbutanoic acid] fall in the same range of IC50: 1 to 100 nM for the first, 1 to 100 nM for the second.

`CCC[C@H]1N(C(=O)c2ncccc2C(F)(F)F)CCC[C@@]1(Oc1csc(C(F)(F)F)c1)C(=O)N1CCc2cc(Cl)ccc2C1CCC(=O)NCc1nn[nH]n1` (stereo partly drawn) [Compound A67, 3-(6-chloro-2-{[(2R,3S)-2-propyl-1-{[3-(trifluoromethyl)pyridin-2-yl]carbonyl}-3-{[5-(trifluoromethyl)thiophen-3-yl]oxy}piperidin-3-yl]carbonyl}-1,2,3,4-tetrahydroisoquinolin-1-yl)-N-(2H-tetrazol-5-ylmethyl)propanamide] and `COCCN(CCOC)CC[C@H]1N(C(=O)c2cnccc2C(F)(F)F)CCC[C@@]1(Oc1csc(C(F)(F)F)c1)C(=O)N1CCc2cc(Cl)ccc2C1` [Compound A2, 2-[(2R,3S)-3-[(6-chloro-3,4-dihydroisoquinblin-2(1H)-yl)carbonyl]-1-{[4-(trifluoromethyl)byridin-3-yl]carbonyl}-3-{[5-(trifluoromethyl)thiophen-3-yl]oxy}piperidin-2-yl]-N,N-bis(2-methoxyethyl)ethanamine] fall in the same range of IC50: 1 to 100 nM for the first, 1 to 100 nM for the second.

`CCCC1N(C(=O)c2ncccc2C(F)(F)F)CCCC1(Oc1ccc(OC(F)(F)F)cc1)C(=O)N1CCc2cc(F)ccc2C1` (stereo not drawn) [Compound A110, 6-fluoro-2-[(2-propyl-3-[4-(trifluoromethoxy)phenoxy]-1-{[3-(trifluoromethyl)pyridin-2-yl]carbonyl}piperidin-3-yl)carbonyl]-1,2,3,4-tetrahydroisoquinoline] showed an IC50 of 101 to 20000 nM.
